Read-outs that look alike come from different tables or passages of the source.
Columns and labels:
HIV-1IIIB = test: Anti-HIV-1 assay: inhibition of virus-induced cytopathogenicity in MT-4 cells (MTT method); assay type: cell-based, human immunodeficiency virus type-1; details: MT-4 cells infected with HIV-1IIIB, m.o.i. 0.01, 4-day incubation, read-out: EC50: compound concentration required to achieve 50 % protection of MT-4 cells from the HIV-1-induced cytopathogenicity
Description: Cell line and viruses were purchased from the American Type Culture Collection (ATCC). The absence of mycoplasma contamination was checked periodically by the Hoechst staining method. Cell line supporting the multiplication of human immunodeficiency virus type-1 (HIV-1) was the CD4+ human T-cells containing an integrated HTLV-1 genome (MT-4).
Compound’s activity against HIV-1 was based on inhibition of virus-induced cytopathogenicity in MT-4 cell acutely infected with a multiplicity of infection (m.o.i.) of 0.01. In brief, 50 μl of RPMI containing 1 × 10^4 MT-4 cells were added to each well of flat-bottom microtitre trays, containing 50 μl of RPMI with or without serial dilutions of test compounds. Then, 20 μl of a HIV-1 suspension containing 100 CCID50 was added. After a 4-day incubation at 37 °C, cell viability was determined by the MTT method (Pauwels et al., [1988]).

MT-4 cells = test: Cytotoxicity assay in MT-4 cells (MTT method); assay type: cell-based, human
Experimental: (§1) Cell line and viruses were purchased from the American Type Culture Collection (ATCC). The absence of mycoplasma contamination was checked periodically by the Hoechst staining method. Cell line supporting the multiplication of human immunodeficiency virus type-1 (HIV-1) was the CD4+ human T-cells containing an integrated HTLV-1 genome (MT-4). Cytotoxicity assays were run in parallel with antiviral assays. Exponentially growing MT-4 cells were seeded at an initial density of 1 × 10^5 cells/ml in 96-well plates in RPMI-1640 medium, supplemented with 10 % fetal bovine serum (FBS), 100 units/ml penicillin G, and 100 μg/ml streptomycin. Cell cultures were then incubated at 37 °C in a humidified 5 % CO2 atmosphere in the absence or presence of serial dilutions of test compounds. Cell viability was determined after 96 h at 37 °C by the 3-(4,5-dimethylthiazol-2-yl)-2,5-diphenyl-tetrazolium bromide (MTT) method (Pauwels et al., [1988]).

[1] = Cytotoxicity assay in MT-4 cells (MTT method); assay type: cell-based, human; details: human; mock-infected MT-4 cells, 96 h, MTT method; read-out: CC50: compound concentration required to reduce the viability of mock-infected MT-4 cells by 50 %
Experimental: as §1

5-HT1A receptor = target: T1, 5-HT1A receptor (Rattus norvegicus, UniProt P19327); test: In vitro ligand binding assay with native 5-HT1A receptor
T1 construct: Ligand studies with native 5-HT1A receptor; from tissue
T1 sequence (P19327 1-422): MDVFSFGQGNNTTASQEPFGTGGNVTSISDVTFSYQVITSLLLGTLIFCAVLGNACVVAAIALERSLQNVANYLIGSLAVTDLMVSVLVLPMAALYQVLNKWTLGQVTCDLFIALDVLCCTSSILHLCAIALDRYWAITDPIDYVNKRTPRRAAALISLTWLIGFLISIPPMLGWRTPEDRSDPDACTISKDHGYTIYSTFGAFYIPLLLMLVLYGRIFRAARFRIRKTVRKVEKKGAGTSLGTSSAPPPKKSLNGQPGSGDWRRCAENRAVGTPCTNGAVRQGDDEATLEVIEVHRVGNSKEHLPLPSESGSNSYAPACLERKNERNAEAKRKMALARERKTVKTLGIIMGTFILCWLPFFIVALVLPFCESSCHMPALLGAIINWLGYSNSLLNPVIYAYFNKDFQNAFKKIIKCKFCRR
Experimental: Ligand studies with native 5-HT1A receptor were conducted according to the methods previously described (Lewgowd et al., [2011]).

[2] = Human immunodeficiency virus 1, MT4, 96 h

Molecule | melting point | EC50 (HIV-1IIIB) | CC50 (MT-4 cells) | EC50 (HIV-1IIIB; [2]) | CC50 at 96 h [1] | activity to the 5-HT1A receptor (5-HT1A receptor)
O=c1cccc2cc3c(-c4ccccc4)c4c(=O)n(CCCCBr)c(=O)c4c(-c4ccccc4)c3c1-2 | 241 to 242 °C | – | – | – | – | –
2-{4-[4-(2-Fluorophenyl)piperazin-1-yl]butyl}-4,10-diphenyl-1H,2H,3H,5H-indeno[1,2-f]isoindole-1,3,5-trione [Compound 15] | – | > 100 µM | > 100 µM | – | – | –
2-{4-[4-(4-Fluorophenyl)piperazin-1-yl]butyl}-4,10-diphenyl-1H,2H,3H,5H-indeno[1,2-f]isoindole-1,3,5-trione [Compound 16] | – | > 100 µM | > 100 µM | – | – | –
4,10-Diphenyl-2-[4-(4-phenylpiperazin-1-yl)butyl]-1H,2H,3H,5H-indeno[1,2-f]isoindole-1,3,5-trione [Compound 12] | – | > 100 µM | > 100 µM | – | – | –
4,10-Diphenyl-2-[4-(4-{2-[2-(trifluoromethyl)phenyl]ethyl}piperazin-1-yl)butyl]-1H,2H,3H,5H-indeno[1,2-f]isoindole-1,3,5-trione [Compound 14] | – | > 9 µM | 9 µM | – | – | –
4,10-Diphenyl-2-{4-[4-(pyridin-2-yl)piperazin-1-yl]butyl}-1H,2H,3H,5H-indeno[1,2-f]isoindole-1,3,5-trione [Compound 13] | – | > 100 µM | > 100 µM | – | – | –
O=C1C2C(C(=O)N1CCCCN1CCN(c3ccccn3)CC1)C1(c3ccccc3)C(=O)C2(c2ccccc2)c2c1c1ccccc1c1ccccc21 (stereo not drawn) [Compound 3, 1,16-Diphenyl-19-(4-(4-pyridin-2-ylpiperazin-1-yl)butyl)-19-azahexacyclo-[14.5.1.0^2,15.0^3,8.0^9,14.0^17,21]docosa-2,3,5,7,8,9,11,13,14-nonaene-18,20,22-trione] | 200 to 203 °C | – | – | > 90 µM | 90 µM | –
COc1ccccc1N1CCN(CCCCN2C(=O)C3C(C2=O)C2(c4ccccc4)C(=O)C3(c3ccccc3)c3c2c2ccccc2c2ccccc32)CC1 (stereo not drawn) [Compound 4, 19-(4-(4-(2-(Methyloxy)phenyl)piperazin-1-yl)butyl)-1,16-diphenyl-19-azahexa-cyclo[14.5.1.0^2,15.0^3,8.0^9,14.0^17,21]docosa-2,3,5,7,8,9,11,13,14-nonaene-18,20,22-trione] | 197 to 200 °C | – | – | – | – | moderate activity
O=C1C2C(C(=O)N1CCCCN1CCN(c3ccc(Cl)cc3)CC1)C1(c3ccccc3)C(=O)C2(c2ccccc2)c2c1c1ccccc1c1ccccc21 (stereo not drawn) [Compound 6, 19-(4-(4-(4-Chlorophenyl)piperazin-1-yl)butyl)-1,16-diphenyl-19-azahexacyclo-[14.5.1.0^2,15.0^3,8.0^9,14.0^17,21]docosa-2,3,5,7,8,9,11,13,14-nonaene-18,20,22-trione] | 220 to 221 °C | – | – | > 100 µM | > 100 µM | –
O=C1C2C(C(=O)N1CCCCN1CCN(c3ccccc3F)CC1)C1(c3ccccc3)C(=O)C2(c2ccccc2)c2c1c1ccccc1c1ccccc21 (stereo not drawn) [Compound 7, 19-(4-(4-(2-Fluorophenyl)piperazin-1-yl)butyl)-1,16-diphenyl-19-azahexacyclo-[14.5.1.0^2,15.0^3,8.0^9,14.0^17,21]docosa-2,3,5,7,8,9,11,13,14-nonaene-18,20,22-trione] | 205 to 207 °C | – | – | > 100 µM | > 100 µM | –
CC(=O)c1ccc(N2CCN(CCCCN3C(=O)C4C(C3=O)C3(c5ccccc5)C(=O)C4(c4ccccc4)c4c3c3ccccc3c3ccccc43)CC2)cc1 (stereo not drawn) [Compound 8, 19-(4-(4-(4-Acetylphenyl)piperazin-1-yl)butyl)-1,16-diphenyl-19-azahexacyclo-[14.5.1.0^2,15.0^3,8.0^9,14.0^17,21]docosa-2,3,5,7,8,9,11,13,14-nonaene-18,20,22-trione] | 202 to 204 °C | – | – | > 100 µM | > 100 µM | –
O=c1[nH]c(=O)c2c(-c3ccccc3)c3c(c(-c4ccccc4)c12)c(=O)c1ccccc13 [Compound 10, 4,10-diphenyl-1H,2H,3H,5H-indeno[1,2-f]isoindole-1,3,5-trione] | – | > 9 µM | 9 µM | – | – | –
O=c1c2ccccc2c2c(-c3ccccc3)c3c(=O)n(CCCCN4CCN(c5ccc(Cl)cc5)CC4)c(=O)c3c(-c3ccccc3)c12 [Compound 17, 2-{4-[4-(4-Chlorophenyl)piperazin-1-yl]butyl}-4,10-diphenyl-1H,2H,3H,5H-indeno[1,2-f]isoindole-1,3,5-trione] | – | > 100 µM | > 100 µM | – | – | –
O=c1c2ccccc2c2c(-c3ccccc3)c3c(=O)n(CCCCN4CCN(c5ccccc5Cl)CC4)c(=O)c3c(-c3ccccc3)c12 [Compound 18, 2-{4-[4-(2-Chlorophenyl)piperazin-1-yl]butyl}-4,10-diphenyl-1H,2H,3H,5H-indeno[1,2-f]isoindole-1,3,5-trione] | – | > 100 µM | > 100 µM | – | – | –
COc1ccccc1N1CCN(CCCCn2c(=O)c3c(-c4ccccc4)c4c(=O)c5ccccc5c4c(-c4ccccc4)c3c2=O)CC1 [Compound 19, 2-{4-[4-(2-metoxyphenyl)piperazin-1-yl]butyl}-4,10-diphenyl-1H,2H,3H,5H-indeno[1,2-f]isoindole-1,3,5-trione] | 245 to 246 °C | – | – | > 100 µM | > 100 µM | –
O=C1Nc2ccc(Cl)cc2[C@@](C#CC2CC2)(C(F)(F)F)O1 [Efavirenz, reference compound] | – | – | – | 0.002 µM | 45 µM | –

From publication PMC3905170, “Synthesis and structure evaluation of new complex butylarylpiperazin-1-yl derivatives” (Medicinal Chemistry Research, 2013)
